Where two headings read alike, the source gives them in different places.
Experiments:
[1] = system: IL-2 production by ConA-stimulated thymic cells; assay: IL-2 production by ConA-stimulated thymic cells (IL-2-dependent CTLL-2 bioassay); assay type: in vivo, mice
Description: Considering that significant enhancement of proliferation by SCV-07 might be due to its influence on IL-2 production, IL-2 activity was studied with the IL-2-dependent CTLL-2 line.

[2] = system: splenocytes; assay: OvA-induced proliferation of splenocytes of OvA-immunized mice; assay type: in vivo; conditions: for Proliferation of splenocytes, Spontaneous, cpm, M ± SD / Proliferation of splenocytes, SI / Proliferation of splenocytes, cpm, M ± SD: OvA/FA
Experimental: Assessment of Mitogen- and Antigen-Induced Proliferation: […] Antigen-specific proliferation was studied by stimulating thymocytes and splenoctyes in vitro with different concentrations of OvA for 96 h. Twenty (20) to twenty-four (24) hours prior to completion of incubation, 3H-labeled thymidine (5 μCi/ml) was added to the cells. The cells were then transferred to fiberglass filters with a Titertek® semi-automatic cell harvester. Thymidine uptake was measured using a RackBeta 1217 (Wallac) liquid scintillation β-counter. For quantitative analysis of proliferation, the stimulation index (SI) was calculated as a ratio of the intensity of label inclusion in the stimulated cells to that in non-stimulated cells.

[3] = system: IL-2 production by OvA-stimulated splenocytes; assay: OvA-stimulated production of IL-2 by splenocytes of OvA-immunized mice; conditions: for activity at 0.0001 mg/kg / activity at 0.001 mg/kg / activity at 0.01 mg/kg: Mus musculus, Splenocyte, po; for activity at 0.0001 mg/kg: 0.1 μg/kg per os; for activity at 0.001 mg/kg: 1.0 μg/kg per os; for activity at 0.01 mg/kg: 10.0 μg/kg per os
Experimental: The OvA was administered subcutaneously to the crest in a volume of 200 μl. Mice were immunized on day 1 with OvA in complete Freund's adjuvant (CFA; Sigma) and on day 15 with the antigen in incomplete Freund's adjuvant (IFA; Sigma). The immune response was analyzed on day 29. Mice were also immunized with 10 μg/mouse of OvA using Alum as an adjuvant.
Thymuses and spleens from mice of each treatment group were pooled, and then minced with scissors. The minced tissues were suspended in sterile PBS to form cell suspensions, filtered through a double gauze layer and centrifuged. Cells were washed twice with PBS, re-suspended in RPMI-1640 (Sigma) with 2.0 mM of L-glutamine, 50 μM of mercaptoethanol, and 10 μg/ml of gentamycin (complete medium); and cell counts were made. (The splenocyte suspension was washed with a 0.86% solution of NH4Cl to pre-lyse erthrocytes.)
Assessment of Mitogen- and Antigen-Induced Production of Cytokines: Thymic cells (1×10^6/well) in complete medium with 2% FCS were stimulated with ConA (0, 1, and 2 μg/ml). Splenocytes (1×10^6/well) in complete medium with 5% FCS were stimulated with ConA (0, 1, and 5 μg/ml) and with OvA (0-100 μg/ml). […] Supernatants from OvA-stimulated cultures were collected after 72 hours. Supernatants from both cultures were frozen, and kept at 20° C. Concentrations of IL-2, IL-4, IL-10, IL-12R40 and IFNγ in the supernatants were determined by solid-phase EIA with EIA Expansion Kits, available from BD Biosciences (formerly Pharmingen), in accordance with the manufacturer's instructions.

[4] = 10.0 μg/kg per os, OvA 10 μg/ml
[5] = 10.0 μg/kg per os, OvA 50 μg/ml
[6] = read-out: Production of IL-2 by splenocytes, % (% of control), OvA/Alum, OvA 0 μg/ml
[7] = read-out: Production of IL-2 by splenocytes, % (% of control), OvA/Alum, OvA 1 μg/ml
[8] = read-out: Production of IL-2 by splenocytes, % (% of control), OvA/Alum, OvA 10 μg/ml
[9] = read-out: Production of IL-2 by splenocytes, % (% of control), OvA/Alum, OvA 25 μg/ml
[10] = read-out: Production of IL-2 by splenocytes, % (% of control), OvA/Alum, OvA 100 μg/ml
[11] = read-out: Production of IL-2 by splenocytes, % (% of control), OvA/FA, OvA 0 μg/ml
[12] = read-out: Production of IL-2 by splenocytes, % (% of control), OvA/FA, OvA 1 μg/ml
[13] = read-out: Production of IL-2 by splenocytes, % (% of control), OvA/FA, OvA 10 μg/ml
[14] = read-out: Production of IL-2 by splenocytes, % (% of control), OvA/FA, OvA 25 μg/ml
[15] = read-out: Production of IL-2 by splenocytes, % (% of control), OvA/FA, OvA 100 μg/ml

N[C@H](CCC(=O)N[C@@H](Cc1c[nH]c2ccccc12)C(=O)O)C(=O)O [SCV-07, γ-D-glutamyl-L-tryptophan]
IL-2 production (U/ml), M ± SD ([1]; ConA 1 μg/ml, 0.01 μg/kg per os): 0.00 ± 0.00 U/ml
IL-2 production (U/ml), M ± SD ([1]; ConA 1 μg/ml, 0.1 μg/kg i/p): 0.25 ± 0.08 U/ml
IL-2 production (U/ml), M ± SD ([1]; ConA 1 μg/ml, 0.1 μg/kg per os): 0.10 ± 0.13 U/ml
IL-2 production (U/ml), M ± SD ([1]; ConA 1 μg/ml, 1.0 μg/kg i/p): 0.92 ± 0.06 U/ml
IL-2 production (U/ml), M ± SD ([1]; ConA 1 μg/ml, 1.0 μg/kg per os): 1.06 ± 0.37 U/ml
IL-2 production (U/ml), M ± SD ([1]; ConA 1 μg/ml, 10.0 μg/kg per os): 0.25 ± 0.12 U/ml
IL-2 production (U/ml), M ± SD ([1]; ConA 1 μg/ml, 100.0 μg/kg per os): 0.31 ± 0.15 U/ml
IL-2 production (U/ml), M ± SD ([1]; ConA 2 μg/ml, 0.01 μg/kg per os): 0.44 ± 0.11 U/ml
IL-2 production (U/ml), M ± SD ([1]; ConA 2 μg/ml, 0.1 μg/kg i/p): 1.40 ± 0.38 U/ml
IL-2 production (U/ml), M ± SD ([1]; ConA 2 μg/ml, 0.1 μg/kg per os): 1.00 ± 0.13 U/ml
IL-2 production (U/ml), M ± SD ([1]; ConA 2 μg/ml, 1.0 μg/kg i/p): 1.60 ± 0.15 U/ml
IL-2 production (U/ml), M ± SD ([1]; ConA 2 μg/ml, 1.0 μg/kg per os): 3.31 ± 0.01 U/ml
IL-2 production (U/ml), M ± SD ([1]; ConA 2 μg/ml, 10.0 μg/kg per os): 0.39 ± 0.12 U/ml
IL-2 production (U/ml), M ± SD ([1]; ConA 2 μg/ml, 100.0 μg/kg per os): 1.19 ± 0.30 U/ml
proliferation of splenocytes versus control group ([2]; OvA/Alum, data not shown): No significant differences
Proliferation of splenocytes, Spontaneous, cpm, M ± SD ([2]; 0.1 μg/kg i/p): 10726 ± 1947 cpm
Proliferation of splenocytes, SI ([2]; 0.1 μg/kg i/p, OvA 10 μg/ml): 1.09
Proliferation of splenocytes, cpm, M ± SD ([2]; 0.1 μg/kg i/p, OvA 10 μg/ml): 11683 ± 2285 cpm
Proliferation of splenocytes, SI ([2]; 0.1 μg/kg i/p, OvA 50 μg/ml): 1.32
Proliferation of splenocytes, cpm, M ± SD ([2]; 0.1 μg/kg i/p, OvA 50 μg/ml): 14195 ± 3304 cpm
Proliferation of splenocytes, Spontaneous, cpm, M ± SD ([2]; 0.1 μg/kg per os): 8786 ± 1259 cpm
Proliferation of splenocytes, SI ([2]; 0.1 μg/kg per os, OvA 10 μg/ml): 1.29
Proliferation of splenocytes, cpm, M ± SD ([2]; 0.1 μg/kg per os, OvA 10 μg/ml): 11304 ± 1317 cpm
Proliferation of splenocytes, SI ([2]; 0.1 μg/kg per os, OvA 50 μg/ml): 1.36
Proliferation of splenocytes, cpm, M ± SD ([2]; 0.1 μg/kg per os, OvA 50 μg/ml): 11923 ± 1623 cpm
Proliferation of splenocytes, Spontaneous, cpm, M ± SD ([2]; 1.0 μg/kg i/p): 9760 ± 1650 cpm
Proliferation of splenocytes, SI ([2]; 1.0 μg/kg i/p, OvA 10 μg/ml): 1.05
Proliferation of splenocytes, cpm, M ± SD ([2]; 1.0 μg/kg i/p, OvA 10 μg/ml): 10260 ± 2808 cpm
Proliferation of splenocytes, SI ([2]; 1.0 μg/kg i/p, OvA 50 μg/ml): 1.67
Proliferation of splenocytes, cpm, M ± SD ([2]; 1.0 μg/kg i/p, OvA 50 μg/ml): 16313 ± 1057 cpm
Proliferation of splenocytes, Spontaneous, cpm, M ± SD ([2]; 1.0 μg/kg per os): 7013 ± 1698 cpm
Proliferation of splenocytes, SI ([2]; 1.0 μg/kg per os, OvA 10 μg/ml): 1.26
Proliferation of splenocytes, cpm, M ± SD ([2]; 1.0 μg/kg per os, OvA 10 μg/ml): 8864 ± 2675 cpm
Proliferation of splenocytes, SI ([2]; 1.0 μg/kg per os, OvA 50 μg/ml): 1.49
Proliferation of splenocytes, cpm, M ± SD ([2]; 1.0 μg/kg per os, OvA 50 μg/ml): 10457 ± 1740 cpm
Proliferation of splenocytes, Spontaneous, cpm, M ± SD ([2]; 10.0 μg/kg per os): 10665 ± 887 cpm
Proliferation of splenocytes, SI [2, 4]: 1.27
Proliferation of splenocytes, cpm, M ± SD [2, 4]: 13585 ± 1102 cpm
Proliferation of splenocytes, SI [2, 5]: 1.21
Proliferation of splenocytes, cpm, M ± SD [2, 5]: 12903 ± 881 cpm
activity at 0.0001 mg/kg [3, 6]: 100%
activity at 0.0001 mg/kg [3, 7]: 94.3%
activity at 0.0001 mg/kg [3, 8]: 72%
activity at 0.0001 mg/kg [3, 9]: 148%
activity at 0.0001 mg/kg [3, 10]: 52.5%
activity at 0.001 mg/kg [3, 6]: 100%
activity at 0.001 mg/kg [3, 7]: 57.7%
activity at 0.001 mg/kg [3, 8]: 113%
activity at 0.001 mg/kg [3, 9]: 75.4%
activity at 0.001 mg/kg [3, 10]: 74.7%
activity at 0.01 mg/kg [3, 6]: 100%
activity at 0.01 mg/kg [3, 7]: 191%
activity at 0.01 mg/kg [3, 8]: 87.2%
activity at 0.01 mg/kg [3, 9]: 75.6%
activity at 0.01 mg/kg [3, 10]: 104%
activity at 0.0001 mg/kg [3, 11]: 100%
activity at 0.0001 mg/kg [3, 12]: 32.4%
activity at 0.0001 mg/kg [3, 13]: 43.9%
activity at 0.0001 mg/kg [3, 14]: 119%
activity at 0.0001 mg/kg [3, 15]: 44.8%
activity at 0.001 mg/kg [3, 11]: 100%
activity at 0.001 mg/kg [3, 12]: 67.6%
activity at 0.001 mg/kg [3, 13]: 248%
activity at 0.001 mg/kg [3, 14]: 125%
activity at 0.001 mg/kg [3, 15]: 231%
activity at 0.01 mg/kg [3, 11]: 100%
activity at 0.01 mg/kg [3, 12]: 49.2%
activity at 0.01 mg/kg [3, 13]: 187%
activity at 0.01 mg/kg [3, 14]: 176%
activity at 0.01 mg/kg [3, 15]: 293%
Production of IL-2 by splenocytes ([3]; OvA/Alum, 0.1 μg/kg i/p, OvA 0 μg/ml): 163.0 pg/mL
